Results from US6472391B2, “Nitrogen-containing heterocyclic compounds” (Millennium Pharmaceuticals, Inc., priority 1996, dated 2002).

Row | Compound | melting point [°C]
1 | COc1cccc(CNC(=S)N2CCN(c3ncnc4cc(OC)c(OC)cc34)CC2)c1 [Compound 197, 4-(6,7-Dimethoxy-4-quinazolinyl)-N-(3-methoxybenzyl)-1-piperazinethiocarboxamide] | 146 to 147
2 | COc1ccc(CNC(=O)N2CCN(c3ncnc4cc(OC)c(OC)cc34)CC2)cc1 [Compound 198, 4-(6,7-Dimethoxy-4-quinazolinyl)-N-(4-methoxybenzyl)-1-piperazinecarboxamide] | 147 to 148
3 | COc1ccc(CNC(=S)N2CCN(c3ncnc4cc(OC)c(OC)cc34)CC2)cc1 [Compound 199, 4-(6,7-Dimethoxy-4-quinazolinyl)-N-(4-methoxybenzyl)-1-piperazinethiocarboxamide] | 201 to 204
4 | CCOc1ccc(CNC(=O)N2CCN(c3ncnc4cc(OC)c(OC)cc34)CC2)cc1 [Compound 200, 4-(6,7-Dimethoxy-4-quinazolinyl)-N-(4-ethoxybenzyl)-1-piperazinecarboxamide] | 176 to 177
5 | CCCOc1ccc(NC(=O)N2CCN(c3ncnc4cc(OC)c(OC)cc34)CC2)cc1 [Compound 201, 4-(6,7-Dimethoxy-4-quinazolinyl)-N-(4-propoxyphenyl)-1-piperazinecarboxamide] | 218 to 220
6 | COc1cc2ncnc(N3CCN(C(=O)Nc4ccc(OC(C)C)cc4)CC3)c2cc1OC [Compound 202, 4-(6,7-Dimethoxy-4-quinazolinyl)-N-(4-isopropoxyphenyl)-1-piperazinecarboxamide] | 220 to 222
7 | COc1cc2ncnc(N3CCN(C(=S)NCc4ccc(OC(F)(F)F)cc4)CC3)c2cc1OC [Compound 204, 4-(6,7-Dimethoxy-4-quinazolinyl)-N-(4-trifluoromethoxybenzyl)-1-piperazinethiocarboxamide] | 131 to 132
8 | COc1ccc(CNC(=S)N2CCN(c3ncnc4cc(OC)c(OC)cc34)CC2)cc1OC [Compound 205, N-(3,4-Dimethoxybenzyl)-4-(6,7-dimethoxy-4-quinazolinyl)-1-piperazinethiocarboxamide] | 196 to 197
9 | COc1ccc(CCNC(=S)N2CCN(c3ncnc4cc(OC)c(OC)cc34)CC2)cc1OC [Compound 206, N-[2-(3,4-Dimethoxyphenyl)ethyl]-4-(6,7-dimethoxy-4-quinazolinyl)-1-piperazinethiocarboxamide] | 98 to 100
10 | COc1cc2ncnc(N3CCN(C(=S)Nc4ccc5c(c4)OCCO5)CC3)c2cc1OC [Compound 209, 4-(6,7-Dimethoxy-4-quinazolinyl)-N-(3,4-ethylenedioxyphenyl)-1-piperazinethiocarboxamide] | 165 to 166
11 | COc1cc2ncnc(N3CCN(C(=O)Nc4cc(OC)c(OC)c(OC)c4)CC3)c2cc1OC [Compound 212, 4-(6,7-Dimethoxy-4-quinazolinyl)-N-(3,4,5-trimethoxyphenyl)-1-piperazinecarboxamide] | 198 to 199
12 | COc1cc2ncnc(N3CCN(C(=O)Nc4ccc(OC(C)=O)cc4)CC3)c2cc1OC [Compound 216, N-(4-Acetoxyphenyl)-4-(6,7-dimethoxy-4-quinazolinyl)-1-piperazinecarboxamide] | 197 to 199
13 | COc1cc2ncnc(N3CCN(C(=O)Nc4cccc(SC)c4)CC3)c2cc1OC [Compound 217, 4-(6,7-Dimethoxy-4-quinazolinyl)-N-(3-methylthiophenyl)-1-piperazinecarboxamide] | 180 to 181
14 | COc1cc2ncnc(N3CCN(C(=S)Nc4ccc(SC)cc4)CC3)c2cc1OC [Compound 218, 4-(6,7-Dimethoxy-4-quinazolinyl)-N-(4-methylthiophenyl)-1-piperazinethiocarboxamide] | 214 to 216
15 | CCSc1ccc(NC(=O)N2CCN(c3ncnc4cc(OC)c(OC)cc34)CC2)cc1 [Compound 219, 4-(6,7-Dimethoxy-4-quinazolinyl)-N-(4-ethylthiophenyl)-1-piperazinecarboxamide] | 208 to 209
16 | COc1cc2ncnc(N3CCN(C(=S)Nc4ccc(SC(F)(F)F)cc4)CC3)c2cc1OC [Compound 220, 4-(6,7-Dimethoxy-4-quinazolinyl)-N-(4-trifluoromethylthiophenyl)-1-piperazinethiocarboxamide] | 128 to 131
17 | COc1cc2ncnc(N3CCN(C(=O)Nc4ccc(N(C)C)cc4)CC3)c2cc1OC [Compound 222, 4-(6,7-Dimethoxy-4-quinazolinyl)-N-(4-dimethylaminophenyl)-1-piperazinecarboxamide] | 252 to 254
18 | COc1cc2ncnc(N3CCN(C(=O)NCc4ccc(N(C)C)cc4)CC3)c2cc1OC [Compound 223, 4-(6,7-Dimethoxy-4-quinazolinyl)-N-(4-dimethylaminobenzyl)-1-piperazinecarboxamide] | 188 to 190
19 | COc1cc2ncnc(N3CCN(C(=S)NCc4ccc(N(C)C)cc4)CC3)c2cc1OC [Compound 224, 4-(6,7-Dimethoxy-4-quinazolinyl)-N-(4-dimethylaminobenzyl)-1-piperazinethiocarboxamide] | 177 to 178

Row | Compound | melting point [°C]
20 | CCN(CC)c1ccc(NC(=O)N2CCN(c3ncnc4cc(OC)c(OC)cc34)CC2)cc1 [Compound 225, N-(4-Diethylaminophenyl)-4-(6,7-dimethoxy-4-quinazolinyl)-1-piperazinecarboxamide] | 221 to 223
21 | COc1cc2ncnc(N3CCN(C(=S)Nc4cccc(NC(C)=O)c4)CC3)c2cc1OC [Compound 226, N-(3-Acetamidophenyl)-4-(6,7-dimethoxy-4-quinazolinyl)-1-piperazinethiocarboxamide] | 207 to 208
22 | COc1cc2ncnc(N3CCN(C(=O)Nc4ccc(CN(C)C)cc4)CC3)c2cc1OC [Compound 227, 4-(6,7-Dimethoxy-4-quinazolinyl)-N-[4-(N,N-dimethylaminomethyl)phenyl]-1-piperazinecarboxamide] | 213 to 215
23 | COc1cc2ncnc(N3CCN(C(=S)NC(=O)c4ccc([N+](=O)[O-])cc4)CC3)c2cc1OC [Compound 232, 4-(6,7-Dimethoxy-4-quinazolinyl)-N-(4-nitrobenzoyl)-1-piperazinethiocarboxamide] | 103 to 105
24 | COc1cc2ncnc(N3CCN(C(=O)Nc4ccc(Cl)cc4[N+](=O)[O-])CC3)c2cc1OC [Compound 234, N-(4-Chloro-2-nitrophenyl)-4-(6,7-dimethoxy-4-quinazolinyl)-1-piperazinecarboxamide] | 205 to 206
25 | COc1cc2ncnc(N3CCN(C(=O)Nc4cc(C)c(C)cc4[N+](=O)[O-])CC3)c2cc1OC [Compound 237, 4-(6,7-Dimethoxy-4-quinazolinyl)-N-(4,5-dimethyl-2-nitrophenyl)-1-piperazinecarboxamide] | 213 to 215
26 | COc1cc2ncnc(N3CCN(C(=S)Nc4cccc(C#N)c4)CC3)c2cc1OC [Compound 238, N-(3-Cyanophenyl)-4-(6,7-dimethoxy-4-quinazolinyl)-1-piperazinethiocarboxamide] | 169 to 170
27 | COc1cc2ncnc(N3CCN(C(=S)Nc4ccc(C(C)=O)cc4)CC3)c2cc1OC [Compound 242, N-(4-Acetylphenyl)-4-(6,7-dimethoxy-4-quinazolinyl)-1-piperazinethiocarboxamide] | 256 to 257
28 | COc1cc2ncnc(N3CCN(C(=O)Nc4ccc(C(=O)C(F)(F)F)cc4)CC3)c2cc1OC [Compound 243, 4-(6,7-Dimethoxy-4-quinazolinyl)-N-(4-trifluoroacetylphenyl)-1-piperazinecarboxamide] | 144 to 146
29 | CCCC(=O)c1ccc(NC(=S)N2CCN(c3ncnc4cc(OC)c(OC)cc34)CC2)cc1 [Compound 244, N-(4-Butyrylphenyl)-4-(6,7-dimethoxy-4-quinazolinyl)-1-piperazinethiocarboxamide] | 218 to 219
30 | COc1cc2ncnc(N3CCN(C(=O)Nc4ccc(C(=O)c5ccccc5)cc4)CC3)c2cc1OC [Compound 245, N-(4-Benzoylphenyl)-4-(6,7-dimethoxy-4-quinazolinyl)-1-piperazinecarboxamide] | 240 to 241
31 | CCOC(=O)c1cccc(NC(=O)N2CCN(c3ncnc4cc(OC)c(OC)cc34)CC2)c1 [Compound 248, 4-(6,7-Dimethoxy-4-quinazolinyl)-N-(3-ethoxycarbonylphenyl)-1-piperazinecarboxamide] | 187 to 188
32 | COC(=O)c1ccc(NC(=S)N2CCN(c3ncnc4cc(OC)c(OC)cc34)CC2)cc1 [Compound 249, 4-(6,7-Dimethoxy-4-quinazolinyl)-N-(4-methoxycarbonylphenyl)-1-piperazinethiocarboxamide] | 208 to 209
33 | COc1cc2ncnc(N3CCN(C(=O)Nc4ccc(S(C)(=O)=O)cc4)CC3)c2cc1OC [Compound 251, 4-(6,7-Dimethoxy-4-quinazolinyl)-N-(4-mesylphenyl)-1-piperazinecarboxamide] | 266 to 269
34 | COc1cc2ncnc(N3CCN(C(=O)NCc4ccco4)CC3)c2cc1OC [Compound 256, 4-(6,7-Dimethoxy-4-quinazolinyl)-N-furfuryl-1-piperazinecarboxamide] | 168 to 170
35 | COc1cc2ncnc(N3CCN(C(=O)Nc4ccsc4)CC3)c2cc1OC [Compound 257, 4-(6,7-Dimethoxy-4-quinazolinyl)-N-(3-thienyl)-1-piperazinecarboxamide] | 239 to 241
36 | COc1cc2ncnc(N3CCN(C(=O)NCc4ccsc4)CC3)c2cc1OC [Compound 258, 4-(6,7-Dimethoxy-4-quinazolinyl)-N-(3-thienylmethyl)-1-piperazinecarboxamide] | 178 to 179
37 | COc1cc2ncnc(N3CCN(C(=O)NCc4cccs4)CC3)c2cc1OC [Compound 259, 4-(6,7-Dimethoxy-4-quinazolinyl)-N-(2-thienylmethyl)-1-piperazinecarboxamide] | 168 to 170
38 | COC(=O)c1sccc1NC(=S)N1CCN(c2ncnc3cc(OC)c(OC)cc23)CC1 [Compound 260, 4-(6,7-Dimethoxy-4-quinazolinyl)-N-(2-methoxycarbonyl-3-thienyl)-1-piperazinethiocarboxamide] | 226 to 228
